± gives the expanded uncertainty stated by the source.
Assay: xn = mol fraction of the nth substance listed
Conditions: 100 kPa, Liquid; for viscosity: Falling or rolling sphere viscometry; for speed of sound: Frequency=3 MHz, Sing-around technique in a fixed-path interferometer; for mass density: Vibrating tube method

CCCCO [butan-1-ol] + CO
Conditions	mass density, 298.15 K [kg/m3]	mass density, 303.15 K [kg/m3]	mass density, 308.15 K [kg/m3]	speed of sound, 298.15 K [m/s]	speed of sound, 303.15 K [m/s]	speed of sound, 308.15 K [m/s]	viscosity, 293.15 K [mPa·s]	viscosity, 303.15 K [mPa·s]	viscosity, 308.15 K [mPa·s]
x1 = 0.0997	791.339 ± 0.25	786.81 ± 0.25	782.263 ± 0.25	1130.6 ± 1.3	1114.2 ± 1.3	1097.9 ± 1.3	0.7 ± 0.15	0.65 ± 0.15	0.6 ± 0.15
x1 = 0.1994	794.665 ± 0.24	790.266 ± 0.24	785.837 ± 0.25	1150 ± 1.3	1133.6 ± 1.3	1117.3 ± 1.3	0.83 ± 0.15	0.76 ± 0.15	0.71 ± 0.15
x1 = 0.3068	797.503 ± 0.24	793.243 ± 0.24	788.95 ± 0.24	1169.2 ± 1.3	1152.4 ± 1.3	1136.4 ± 1.3	0.99 ± 0.15	0.91 ± 0.15	0.84 ± 0.15
x1 = 0.3991	799.477 ± 0.24	795.305 ± 0.24	791.101 ± 0.24	1183.5 ± 1.3	1166.7 ± 1.3	1150.6 ± 1.3	1.15 ± 0.15	1.05 ± 0.15	0.96 ± 0.15
x1 = 0.5082	801.494 ± 0.24	797.42 ± 0.24	793.315 ± 0.24	1197 ± 1.3	1180.4 ± 1.3	1163.9 ± 1.3	1.36 ± 0.15	1.23 ± 0.15	1.12 ± 0.15
x1 = 0.604	802.958 ± 0.24	798.956 ± 0.24	794.922 ± 0.24	1210.3 ± 1.3	1193.7 ± 1.3	1177.2 ± 1.3	1.57 ± 0.15	1.41 ± 0.15	1.28 ± 0.15
x1 = 0.6992	804.13 ± 0.24	800.184 ± 0.24	796.169 ± 0.24	1218 ± 1.3	1201.4 ± 1.3	1184.8 ± 1.3	1.77 ± 0.15	1.59 ± 0.15	1.43 ± 0.15
x1 = 0.7994	805.057 ± 0.24	801.155 ± 0.24	797.222 ± 0.24	1228.8 ± 1.3	1212.1 ± 1.3	1195.5 ± 1.3	2.05 ± 0.15	1.83 ± 0.15	1.64 ± 0.15
x1 = 0.9038	805.689 ± 0.24	801.817 ± 0.24	797.914 ± 0.24	1235.8 ± 1.3	1219.1 ± 1.3	1202.4 ± 1.3	2.34 ± 0.15	2.08 ± 0.15	1.86 ± 0.15
x1 = 1	806.27 ± 0.24	802.42 ± 0.24	798.536 ± 0.24	1241.1 ± 1.3	1224.3 ± 1.3	1207.5 ± 1.3	2.61 ± 0.15	2.31 ± 0.15	2.07 ± 0.15

Source: the NIST ThermoML archive (doi:10.1016/j.fluid.2017.01.019)
